Tested on: EGLN3 mRNA level in Hep3B cells
Experiment: qRT-PCR of FIH-dependent HIF target gene EGLN3 in Hep3B cells
Format: cell-based
Conditions: for Upregulation of EGLN3 expression: absence of irradiation
Experimental: 5 […] sustainably engages with FIH and regulates the expression of FIH-dependent HIF target gene EGLN3 in Hep3B cells. (A) The CETSA assay was carried out with Hep3B cells grown in the presence of NBA-ZG-2291 (50 μM) for 12–48 h after 30 min of light activation (365 nm, 16 W). The intensity of the bands for grayscale analysis was referenced to the starting temperature (37 °C). α-Actinin was the sample loading control. n = 2; mean ± SD. […] (E) Correlation heatmap of the NBA-ZG-2291-treated group and the siFIH group by RNA-sequencing analysis. […] The relative fold change with respect to DMSO treated sample is shown (with normalization to HPRT gene levels). Mean ± SEM; n = 3. (G) TG level of NBA-ZG-2291-treated 3T3-L1-derived adipocytes. Mean ± SEM; n = 3. (H) Representative Oil Red O-stained images of the control, ZG-2291-treated, and NBA-ZG-2291-treated 3T3-L1-derived adipocytes. Scale Bar, 30 μm. P values were analyzed by two-way ANOVA comparing with the vehicle/control group (*, P < 0.05; **, P < 0.01; ***, P < 0.001, ****, P < 0.0001). See Methods (Quantitative PCR Analysis of Gene Expression) for assay details. TEXT PRINTED IN THE PICTURE: (A) no label printed: FIH: ΔTm (°C): 8.87 (Incubation time: 12 h); FIH: ΔTm (°C): 9.28 (Incubation time: 24 h); FIH: ΔTm (°C): 8.86 (Incubation time: 48 h); α-actinin: ΔTm (°C): 0.30 (Incubation time: 12 h); α-actinin: ΔTm (°C): -0.03 (Incubation time: 24 h); α-actinin: ΔTm (°C): -0.45 (Incubation time: 48 h) DOUBTS OF THE COPYIST ABOUT THIS PICTURE: Panel A: the picture prints no substance label with the ΔTm tables, so the label is left empty
The Egl-9 family hypoxia-inducible factor 3 gene (EGLN3, PHD3) is a HIF target gene, expression of which is negatively regulated by FIH catalysis, , potentially in a context-dependent manner. We therefore investigated the effect of the light-induced covalent inhibitor NBA-ZG-2291 on EGLN3 expression levels in Hep3B cells using ZG-2291 as a positive inhibition control. […] At a concentration of 10 μM, NBA-ZG-2291 increased EGLN3 expression by ∼2.5-fold with irradiation.
We also compared the time-dependent regulation of NBA-ZG-2291 on the HIF pathway with that of ZG-2291. […] This may result from the limited action time of the reversible inhibitor, perhaps due to its metabolism. The overall results provide strong evidence that the light-induced, lysine-targeting irreversible covalent inhibitor NBA-ZG-2291 can effectively and sustainably engage FIH, leading to the upregulation of FIH-dependent HIF target gene expression.

O=C(O)CNC(=O)c1ncc(-c2cc(-c3ccc(CO)c([N+](=O)[O-])c3)no2)cc1O [NBA-ZG-2291]
Upregulation of EGLN3 (0.3 μM, after 30 min light activation (365 nm, 16 W)): 1.35 fold | Upregulation of EGLN3 expression (10 μM): did not result in significant upregulation | Increase of EGLN3 expression (10 μM, with irradiation): ~2.5 fold | Upregulation of EGLN3 expression (20 μM): very weak upregulation | Increase of EGLN3 expression, time course (maintained from 6 to 48 h, after 30 min irradiation): 2.5 fold

— PMC12123601, “Light-Induced, Lysine-Targeting Irreversible Covalent Inhibition of the Human Oxygen Sensing Hydroxylase Factor Inhibiting HIF (FIH)” (Journal of the American Chemical Society, 2025)
